Several values for one entry are separate records, joined by “and”; a condition that tells them apart may be missing. Equal entries are not always repeated. Activity calls are given as the source filed them.
Key:
[1] = Luminescence Cell-Based Dose Response HTS to Identify Activators of Luciferase Translation or Activity in H4 […] Cells. [Related pubchem assays: 1829 (Project Summary), 1814 (Primary HTS)]; type: functional
[2] = test system: H4; assay: Luminescence Cell-Based Dose Response HTS to Identify Activators of 5'UTR Stem-Loop Driven Prion Protein mRNA Translation in H4 Neuroglioblastoma Cells. [Related pubchem assays: 1829 (Project Summary), 1814 (Primary HTS)]; type: functional; settings: Homo sapiens
[3] = molecular target: T1, Polyadenylate-binding protein 1 (Homo sapiens, UniProt P11940); assay: PABP1 MLLE–PAM2 interaction inhibitors, dose response, miRNA deadenylation inhibitor project, biochemical, fluorescence polarization, Cy5-PAM2 peptide, secondary (AID 602260); type: functional; settings: read-out: IC50_Mean
[4] = molecular target: T1, Polyadenylate-binding protein 1; assay: PABP1 MLLE–PAM2 binding inhibitor potency, dose response, biochemical, fluorescence polarization, FITC-PAM2 peptide (AID 602259); type: functional; settings: read-out: IC50_Mean
[5] = molecular target: Genome polyprotein (dengue virus type 2, UniProt P29990); assay: Dengue-2 NS5 methyltransferase inhibitors, primary screen, biochemical, confirmation dose response (AID 588689); type: functional
[6] = molecular target: Cytochrome P450 2D6 (Homo sapiens, UniProt P10635);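 note: CYP2D6 member of a cytochrome P450 panel assay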
[7] = molecular target: T2, Cytochrome P450 1A2 (Homo sapiens, UniProt P05177);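 note: PubChem cytochrome P450 panel assay, CYP1A2 panel member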
T2 sequence (P05177 whole entry): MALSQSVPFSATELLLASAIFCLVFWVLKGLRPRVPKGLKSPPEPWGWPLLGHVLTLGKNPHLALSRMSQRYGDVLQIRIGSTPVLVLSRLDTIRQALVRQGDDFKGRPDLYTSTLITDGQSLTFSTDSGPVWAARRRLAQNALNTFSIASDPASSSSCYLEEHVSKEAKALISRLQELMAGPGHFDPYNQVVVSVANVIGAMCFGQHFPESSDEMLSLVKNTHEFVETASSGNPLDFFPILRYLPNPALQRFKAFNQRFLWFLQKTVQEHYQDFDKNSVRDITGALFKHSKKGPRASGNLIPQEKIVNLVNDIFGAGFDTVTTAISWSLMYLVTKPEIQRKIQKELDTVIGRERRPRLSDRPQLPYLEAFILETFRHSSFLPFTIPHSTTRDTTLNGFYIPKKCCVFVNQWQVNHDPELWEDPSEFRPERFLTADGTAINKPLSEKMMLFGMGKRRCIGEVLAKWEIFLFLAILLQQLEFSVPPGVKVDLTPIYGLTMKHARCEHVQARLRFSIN

[8] = molecular target: Cytochrome P450 2C19 (Homo sapiens, UniProt P33261); assay: Cytochrome panel assay with activity outcomes. Panel member name: p450-cyp2c19 Compounds with AC50 equal or less than 10 uM are considered active; type: functional; settings: read-out: AC50
[9] = inhibitors of firefly luciferase expression or activity, dose response, H4 neuroglioma cells, luminescence (AID 1990); type: functional, cell-based
[10] = Luminescence Cell-Based Dose Response HTS to Identify Inhibitors of 5'UTR Stem-Loop Driven Prion Protein mRNA Translation in H4 Neuroglioblastoma Cells. [Related pubchem assays: 1827 (Project Summary), 1813 (Primary HTS)]; type: functional
[11] = inhibitors of SNCA 5'UTR-driven reporter translation, confirmation, H4 neuroglioma cells, luminescence (AID 1988); type: functional, cell-based
[12] = molecular target: T3, Replicative DNA helicase DnaB (Mycobacterium tuberculosis, UniProt P9WMR3); assay: DnaB intein splicing inhibitors, dose response, biochemical, cell-free fluorescence (AID 449749); type: functional
T3 sequence (P9WMR3 whole entry): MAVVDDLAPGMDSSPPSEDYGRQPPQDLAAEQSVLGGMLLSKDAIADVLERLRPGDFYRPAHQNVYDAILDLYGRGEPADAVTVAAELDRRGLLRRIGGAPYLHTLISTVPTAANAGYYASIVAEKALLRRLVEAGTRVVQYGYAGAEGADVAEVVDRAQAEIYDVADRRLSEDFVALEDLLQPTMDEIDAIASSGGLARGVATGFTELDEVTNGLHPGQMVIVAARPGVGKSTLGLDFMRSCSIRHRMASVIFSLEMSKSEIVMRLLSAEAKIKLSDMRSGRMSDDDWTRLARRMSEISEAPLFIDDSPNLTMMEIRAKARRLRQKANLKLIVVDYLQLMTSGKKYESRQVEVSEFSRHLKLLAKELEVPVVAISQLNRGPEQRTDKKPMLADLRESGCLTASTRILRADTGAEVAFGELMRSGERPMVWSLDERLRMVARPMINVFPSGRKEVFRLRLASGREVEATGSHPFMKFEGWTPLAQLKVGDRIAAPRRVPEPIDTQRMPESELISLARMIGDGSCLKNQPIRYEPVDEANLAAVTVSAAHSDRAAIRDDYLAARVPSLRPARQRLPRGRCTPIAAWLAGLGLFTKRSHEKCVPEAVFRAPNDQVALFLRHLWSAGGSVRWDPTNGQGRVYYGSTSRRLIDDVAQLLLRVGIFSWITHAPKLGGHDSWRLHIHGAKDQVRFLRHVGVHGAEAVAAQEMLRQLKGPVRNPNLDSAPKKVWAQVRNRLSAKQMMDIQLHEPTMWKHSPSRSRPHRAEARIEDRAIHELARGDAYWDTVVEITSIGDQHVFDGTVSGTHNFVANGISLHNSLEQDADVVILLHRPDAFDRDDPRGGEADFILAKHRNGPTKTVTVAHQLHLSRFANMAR

[13] = molecular target: T4, Protein RecA (Mycobacterium tuberculosis, UniProt P9WHJ3); assay: Fluorescence Cell-Free Homogeneous Dose Retest to Identify Inhibitors of RecA-Intein Splicing Activity. [Related pubchem assays (depositor defined):AID2097, AID2223, AID489010, AID492950]; type: functional
T4 sequence (P9WHJ3 whole entry): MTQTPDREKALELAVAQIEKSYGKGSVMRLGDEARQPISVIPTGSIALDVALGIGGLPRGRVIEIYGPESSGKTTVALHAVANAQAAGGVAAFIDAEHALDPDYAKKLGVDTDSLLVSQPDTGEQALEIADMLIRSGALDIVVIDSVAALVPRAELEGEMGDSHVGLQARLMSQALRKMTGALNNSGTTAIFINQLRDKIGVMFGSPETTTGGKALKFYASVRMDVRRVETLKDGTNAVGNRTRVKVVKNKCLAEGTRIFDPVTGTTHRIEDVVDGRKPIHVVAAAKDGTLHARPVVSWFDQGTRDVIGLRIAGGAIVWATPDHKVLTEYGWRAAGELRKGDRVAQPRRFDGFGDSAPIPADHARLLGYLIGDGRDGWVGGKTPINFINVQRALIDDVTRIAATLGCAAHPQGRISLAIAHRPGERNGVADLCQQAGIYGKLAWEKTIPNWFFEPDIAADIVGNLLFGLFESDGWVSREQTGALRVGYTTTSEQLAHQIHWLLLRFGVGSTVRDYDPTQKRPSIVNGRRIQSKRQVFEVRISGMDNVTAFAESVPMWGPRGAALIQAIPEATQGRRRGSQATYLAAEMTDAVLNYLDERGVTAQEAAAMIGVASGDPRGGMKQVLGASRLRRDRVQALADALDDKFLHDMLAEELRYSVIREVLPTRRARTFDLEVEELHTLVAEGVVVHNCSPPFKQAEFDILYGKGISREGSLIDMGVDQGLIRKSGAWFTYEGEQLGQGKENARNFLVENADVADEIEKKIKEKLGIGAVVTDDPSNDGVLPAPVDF

[14] = molecular target: Cytochrome P450 2C9 (Homo sapiens, UniProt P11712)
[15] = test system: H9c2; assay: cells; type: functional, cell-based; settings: Rattus norvegicus, H9c2, Myocardium;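 note: confirmatory concentration-response retest of ultra-high-throughput screening hits for modulation of myocardial damage; cell death induced by hydrogen peroxide oxidative stress; compound pretreatment for 60 min then peroxide exposure for 2 h; potency is for protecting the cells against peroxide damage rather than for killing them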
[16] = molecular target: T5, Heat shock factor protein 1 (Mus musculus, UniProt P38532); assay: inhibition of MG132-induced HSE-luciferase signal, confirmation, cell-based, NIH3T3, luminescence, dose retest (AID 2382); type: functional;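 note: NIH3T3 fibroblasts with HSF1-driven luciferase reporter stressed by proteasome inhibitor MG132; luminescence from HSF1-driven luciferase expression after 8 hours of MG132 stress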
T5 sequence (P38532 whole entry): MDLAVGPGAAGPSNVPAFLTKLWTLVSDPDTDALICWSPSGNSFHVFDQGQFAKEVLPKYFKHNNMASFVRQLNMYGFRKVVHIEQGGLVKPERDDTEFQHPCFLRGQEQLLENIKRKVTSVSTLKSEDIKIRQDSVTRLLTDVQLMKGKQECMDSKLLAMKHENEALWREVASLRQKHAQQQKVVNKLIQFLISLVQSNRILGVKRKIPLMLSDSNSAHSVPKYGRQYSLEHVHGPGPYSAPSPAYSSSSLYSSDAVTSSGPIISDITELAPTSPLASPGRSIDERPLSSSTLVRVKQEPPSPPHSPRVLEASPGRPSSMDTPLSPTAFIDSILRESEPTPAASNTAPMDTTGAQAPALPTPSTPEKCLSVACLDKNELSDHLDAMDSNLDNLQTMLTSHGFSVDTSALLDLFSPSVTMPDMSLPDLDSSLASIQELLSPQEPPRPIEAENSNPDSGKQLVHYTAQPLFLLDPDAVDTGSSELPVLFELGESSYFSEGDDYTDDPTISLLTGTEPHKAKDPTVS

[17] = molecular target: Cytochrome P450 3A4 (Homo sapiens, UniProt P08684);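 note: CYP3A4 tested as one member of a cytochrome P450 panel screen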
[18] = test system: INS1; assay: beta cell apoptosis inhibitors, cytokine rescue, dose response, luminescence, retest (AID 449756); type: functional, cell-based; settings: Rattus norvegicus;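 note: cell death triggered by IL-1 beta plus TNF-alpha plus IFN-gamma mixture; protective hits raise ATP signal compared with cytokine alone wells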

| Compound | IC50 [3] | IC50 [4] | AC50 [6] | also measured |
| --- | --- | --- | --- | --- |
| COc1ccc(-c2cc(C(=O)N3CCN(c4ccccn4)CC3)c3ccccc3n2)cc1 |  |  |  | EC50 [1]: > 120 µM (not active); EC50 [2]: 7.36 µM (active) |
| CC(=O)c1c(C)cc(C)c(CSc2nc(C)cc(=O)[nH]2)c1C | > 66 µM (inactive) | > 66 µM (inactive) |  |  |
| O=C1/C(=C/c2cccnc2)SC(=S)N1c1ccc(F)cc1 | > 66 µM (inactive) | > 66 µM (inactive) |  |  |
| O=C(CSc1nnc(-c2cccnc2)o1)Nc1ccccc1F | > 66 µM (inactive) | > 66 µM (inactive) |  |  |
| Cn1nc([N+](=O)[O-])c(C(C#N)c2nc3ccccc3n2C)c(Cl)c1=O (configuration not stated) | > 66 µM (inactive) | 30.8 µM (inactive) |  | IC50 [5]: 16.7 µM (active) |
| CCCCC#Cc1nc(NC)c2ncn([C@@H]3O[C@@H](CO)[C@H](O)[C@H]3O)c2n1 |  |  | 31.6 µM (inconclusive) | AC50 [7]: 31.6 µM (inconclusive); AC50 [8]: 3.16 µM (inconclusive) |
| Cc1ccc(NC(=O)C2(NC(=O)c3cccc(N4C(=O)CSC4c4ccccc4)c3)CCCCC2)cc1 (configuration not stated) |  |  | 1.12 µM (inconclusive) | EC50 [9]: > 120 µM (not active); EC50 [10]: > 120 µM (not active); EC50 [11]: > 120 µM (not active) |
| S=C(Nc1ccc(Br)cc1Cl)Nn1cnnc1 | > 66 µM (inactive) | > 66 µM (inactive) |  |  |
| CC1=NN(c2ccccc2)C(=O)/C1=C/c1ccc(Cl)cc1 |  |  |  | AC50 [12]: 2.15 µM (active); EC50 [13]: 1.35 µM (active); IC50 [5]: 38.6 µM (active) |
| CCOC(=O)C1=C(O)C(=O)N(Cc2ccccc2)C1 |  |  | 31.6 µM (inconclusive) |  |
| O=C1c2ccccc2NC(c2ccc(Cl)cc2Cl)N1O (configuration not stated) |  |  | 14.1 µM (inconclusive) | AC50 [14]: 25.1 µM (inconclusive); IC50 [15]: > 79 µM (inactive) |
| COc1ccc2c([N+](=O)[O-])c(Cl)[nH]c2c1 |  |  |  | IC50 [5]: > 100 µM (active) |
| O=C(CNC(=O)C1CCCCC1)NC1=NCCS1 | > 66 µM (inactive) | > 66 µM (inactive) |  | EC50 [16]: > 195 µM (not active) |
| COC(=O)C1=C(C)OC(N)=C(C#N)C1C1CCCCC1 (configuration not stated) |  |  | 31.6 µM (inconclusive) | AC50 [7]: 15.8 µM (inconclusive) |
| C(=N\N(c1ccccc1)c1ccccc1)/c1ccc2c(c1)OCO2 |  |  | 10 µM (inconclusive) | AC50 [14]: 8.91 µM (inconclusive); AC50 [8]: 2.51 µM (inconclusive); AC50 [17]: 15.8 µM (inconclusive) |
| O=C(N/N=C/c1cnc(N2CCCCC2)s1)c1ccc(C(F)(F)F)cc1 |  |  |  | EC50 [9]: 12 µM (active); AC50 [18]: 4.54 µM (active); EC50 [10]: > 120 µM (not active); EC50 [11]: 9.6 µM (active) |
| COc1ccc(CONS(=O)(=O)c2ccc(NC(C)=O)cc2)cc1Cl |  |  | 3.55 µM (inconclusive) |  |
| COc1c2c(c3c(c1OC)c(=O)c1ccccc1n3C)OCO2 | > 66 µM (inactive) | 41.7 µM (inactive) |  |  |
| COC(=O)CCC(=O)OC1(C)C(=O)C2=CN(Cc3ccccc3)C(c3ccc(OC)cc3)=CC2=C(Br)C1=O (configuration not stated) |  |  |  | IC50 [5]: 39.1 µM (active) |
| COc1cc(C(=S)N2CCOCC2)cc(OC)c1OS(=O)(=O)c1ccc(C)cc1 | > 66 µM (inactive) | > 66 µM (inactive) |  |  |
| COc1cc(C2c3sc(O)nc3SC3C(=O)N(c4ccc(Br)cc4)C(=O)C32)ccc1O (configuration not stated) | > 66 µM (inactive) | > 66 µM (inactive) |  |  |
| OCCN1CCN(CC/C=C2\c3ccccc3Sc3ccc(C(F)(F)F)cc32)CC1 [E-FLUPENTIXOL] |  |  | 6.31 µM (inconclusive) and 31.6 µM (inconclusive) |  |
| O=C(/C=C\c1ccc(O)c(O)c1)OCCc1ccccc1 |  |  | 39.8 µM (inconclusive) | AC50 [14]: 39.8 µM (inconclusive) |

— ChEMBL document CHEMBL1201862, “PubChem BioAssay data set” (2004)
